“And” between values parts separate entries of the source, which are not always exact repeats. Equal entries are not always repeated. Values belong to the molecule of their own block, whether it stands above or below them.
Test system: PANC-1 complex spheroid growth, percent test/control
Assay: Anticancer human tumor PANC-1 cell line growth inhibition [Asc];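 note: spheroids exposed to agents for 7 days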;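 for viability, T/C: percent viability relative to DMSO vehicle wells taken as 100%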
Conditions: for viability, T/C: stronger effect = lower value
Protocol: Multicellular complex tumor spheroid response to apoptosis pathway targeting inhibitors Alrizomadlin, Pelcitoclax, and Dasminapant in combination with a variety of drugs and investigational agents in selected tumor cell lines
The MDM2 inhibitor alrizomadlin, the Bcl-2/Bcl-xL inhibitor pelcitoclax, and the IAPs inhibitor dasminapant were evaluated both individually and in combination with standard of care and investigational anticancer small molecules within a complex spheroid model of solid tumors. . Complex spheroids include a stromal component modeled by human endothelial cells (HUVEC) and fibroblasts modeled by human mesenchymal stem cells (MSCs). The concentration ranges selected for each drug and investigational agent were based upon clinically achievable concentrations if the clinical Cmax of the agent was known.
Compounds. The drugs and investigational agents: alrizomadlin (APG-115; NSC831270), pelcitoclax (APG-1252; NSC835773), dasminapant (APG-1387;NSC834197), TAK-243 (NSC785004), copanlisib (NSC809693), olaparib (NSC753686), talazoparib (NSC767125), cobimetinib (NSC 768068), eltanexor (KPT-8602, NSC 794443), abemaciclib (NSC 768073), sotorasib (NSC818433), adagrasib (NSC 831453), MRTX-1133 (NSC 836407), Iadademestat (ORY1001, NSC 806812), and RMC-4630 (NSC839698), were obtained from the NCI Developmental Therapeutics Program Chemical Repository. The FDA-approved anticancer drug set is available from the Developmental Therapeutics Program at https://dtp.cancer.gov/organization/dscb/obtaining/available plates.htm. […] The stock solutions were prepared in dimethyl sulfoxide (DMSO, Sigma-Aldrich, St. Louis, MO, cat. D2650) at 800-fold the tested concentration and stored at -70 degrees C prior to their use. All drugs and investigational agents were tested over a range starting from a high concentration at or near the clinical Cmax and decreasing in half-log increments. If the clinical Cmax for an agent had not been determined, the highest concentration tested was 10 microM.
The patient-derived cancer (PDC) cell lines include five colon adenocarcinomas: 186277-243-T-J2-PDC, 616215-338-R-J1-PDC, 439559-082-T-J2-PDC, 463943-066-T-J2-PDC, and 519858-162-T-J1-PDC; three pancreatic carcinomas: 323965-272-R-J2-PDC, 521955-158-R6-J3-PDC, and 521955-158-R2-J5-PDC; two uterine sarcomas: 327498-152-R-J2-PDC and 993429-296-R-J1-PDC; two rhabdomyosarcomas: 755483-174-R-J1-PDC and 772245-204-R-J1-PDC; two soft tissue sarcomas: 126254-015-R-J1-PDC and 494315-158-R-J1-PDC; two malignant fibrous histiocytomas: 317291-083-R-J1-PDC and 596521-263-R-J1-PDC; two breast carcinomas: 171881-019-R-J1-PDC and 885512-296-R-J2-PDC; and one ovarian carcinoma: 6556581-035-R-J-PDC were obtained from the NCI PDMR, (https://pdmr.cancer.gov). The established cell lines HSSY-2 synovial sarcoma (RRID:CVCL 8719), SYO-1 synovial sarcoma (RRID:CVCL_7146), MPNST malignant peripheral neural sheath tumor were obtained from the Sloan Kettering Institute. The following established cell lines were purchased from the American Type Culture Collection (ATCC, Manassas, VA), Sor the received from the NCI repository:, PANC-1 pancreatic carcinoma (CRL-1469, RRID:CVCL_0480), OVCAR-5 ovarian carcinoma (RRID:CVCL_1628), OVCAR-8 ovarian carcinoma (RRID:CVCL_1629), , MCF-7 breast carcinoma (CRL-12584, RRID:CVCL_0031), MDA-MB-231 breast carcinoma (CRL-12532, RRID:CVCL_0062), NCI-H1876 small cell lung carcinoma (CRL-5902, RRID:CVCL_1503), NCI-H510A small cell lung carcinoma (HTB-184, RRID:CVCL_1565), NCI-H1417 (CRL-5869, RRID:CVCL_1469), and NCI-H196 small cell lung carcinoma (CRL-5823, RRID:CVCL_1509). Dr. Peter Houghton (Greehey Children's Cancer Research Institute, University of Texas Health Science Center, San Antonio, TX) provided Rh-18 rhabdomyosarcoma (RRID:CVCL_1659). Pooled donor human umbilical vein endothelial cells (HUVEC, Lonza, cat. CC-2519) and human mesenchymal stem cells (hMSC, Lonza, cat. PT-2501) were purchased from Lonza (Walkersville, MD).
Cell Culture. […]

[1] = compound alone, run of 11/07/2022

IC50 (curve of compound): 7100 nM and 7400 nM and 6980 nM
SMILES: C=C(F)C(=O)N1CCN(c2nc(OCC3CCCN3C)nc3c2CCN(c2cccc4cccc(Cl)c24)C3)CC1CC#N (configuration not stated)
viability, T/C (compound 0.0316 µM): 108% and 97% and 96.2%
viability, T/C (compound 0.1 µM): 105% and 86% and 95%
viability, T/C (compound 0.316 µM): 94.3% and 104% and 98%
viability, T/C (compound 1 µM): 101% and 96.9% and 96.6%
viability, T/C (compound 3.16 µM): 97.6% and 102% and 90.8%
viability, T/C (compound 10 µM): 29.9% and 33.2% and 31.5%

IC50 (curve of compound): > 1000 nM
SMILES: CCN1CCN(Cc2ccc(Nc3ncc(F)c(-c4cc(F)c5nc(C)n(C(C)C)c5c4)n3)nc2)CC1
viability, T/C (compound 0.00316 µM): 98.9% and 103% and 108%
viability, T/C (compound 0.01 µM): 107% and 98.8% and 97.8%
viability, T/C (compound 0.0316 µM): 111% (2×) and 121%
viability, T/C (compound 0.1 µM): 114% and 116% and 118%
viability, T/C (compound 0.316 µM): 122% and 124% and 128%
viability, T/C (compound 1 µM): 135% and 128% and 142%

IC50 (compound alone, run of 11/15/2022): > 1000 nM
IC50 (curve of compound): > 1000 nM
SMILES: CNC(C)C(=O)NC1CN(S(=O)(=O)c2cccc(S(=O)(=O)N3CCC4CCC(C(=O)NC(c5ccccc5)c5ccccc5)N4C(=O)C(NC(=O)C(C)NC)C3)c2)CCC2CCC(C(=O)NC(c3ccccc3)c3ccccc3)N2C1=O (configuration not stated)
viability, T/C (compound 0.00316 µM): 107% [middle of 9 runs]
viability, T/C (compound 0.01 µM): 102% [middle of 9 runs]
viability, T/C (compound 0.0316 µM): 98.1% [middle of 9 runs]
viability, T/C (compound 0.1 µM): 96.1% [middle of 9 runs]
viability, T/C (compound 0.316 µM): 93.5% [middle of 9 runs]
viability, T/C (compound 1 µM): 89.2% [middle of 9 runs]

IC50 [1]: > 10000 nM
SMILES: Cc1c(S(C)(=O)=O)c(-c2cc(F)cc(N3CCN(c4ccc(NS(=O)(=O)c5ccc(NC(CCN6CCC(C(=O)OCCCP(=O)(O)O)CC6)CSc6ccccc6)c(S(=O)(=O)C(F)(F)F)c5)cc4)CC3)c2)c(-c2ccc(Cl)cc2)n1C(C)C (configuration not stated)
viability, T/C (compound 0.0316 µM): 106% [middle of 7 runs]
viability, T/C (compound 0.1 µM): 108% [middle of 7 runs]
viability, T/C (compound 3.16 µM): 109% [middle of 7 runs]

IC50 (curve of compound): > 10000 nM
SMILES: O=C(c1cc(Cc2n[nH]c(=O)c3ccccc23)ccc1F)N1CCN(C(=O)C2CC2)CC1
viability, T/C (compound 0.0316 µM): 93.1% and 94.8% and 102%
viability, T/C (compound 0.1 µM): 92.7% and 90.1% and 94.9%
viability, T/C (compound 0.316 µM): 99.7% and 109% and 102%
viability, T/C (compound 1 µM): 101% and 112% and 116%
viability, T/C (compound 3.16 µM): 113% and 107% and 103%
viability, T/C (compound 10 µM): 101% and 95.9% and 103%

The remaining lines, values behind:

SMILES: C#Cc1c(F)ccc2cc(O)cc(-c3ncc4c(N5CC6CCC(C5)N6)nc(OCC56CCCN5CC(F)C6)nc4c3F)c12 (configuration not stated)
viability, T/C (compound 0.0316 µM): 105% and 87.8% and 92.5%
viability, T/C (compound 0.1 µM): 80% and 75.7% and 88.9%
viability, T/C (compound 0.316 µM): 93.9% and 85.8% and 83.5%
viability, T/C (compound 1 µM): 79.9% and 80.1% and 84%
viability, T/C (compound 3.16 µM): 86.8% and 83.7% and 86.3%
viability, T/C (compound 10 µM): 85.4% and 84.5% and 92.1%
IC50 (curve of compound): > 10000 nM

SMILES: C=CC(=O)N1CCN(c2nc(=O)n(-c3c(C)ccnc3C(C)C)c3nc(-c4c(O)cccc4F)c(F)cc23)C(C)C1 (configuration not stated)
viability, T/C (compound 0.0316 µM): 105% and 97.2% and 101%
viability, T/C (compound 0.1 µM): 96% and 89.2% and 90%
viability, T/C (compound 0.316 µM): 104% and 106% and 98%
viability, T/C (compound 1 µM): 101% and 89.2% and 96.2%
viability, T/C (compound 3.16 µM): 85.8% and 99.7% and 91.8%
viability, T/C (compound 10 µM): 93.4% and 87.1% and 88%
IC50 (curve of compound): > 10000 nM

SMILES: CCN1C(C(=O)NC23CCC(C(=O)O)(CC2)CC3)C(c2cccc(Cl)c2F)C2(C(=O)Nc3cc(Cl)ccc32)C12CCCCC2 (configuration not stated)
viability, T/C (compound 0.00949 µM): 103% [middle of 9 runs]
viability, T/C (compound 0.03 µM): 102% [middle of 9 runs]
viability, T/C (compound 0.0949 µM): 103% [middle of 9 runs]
viability, T/C (compound 0.3 µM): 100% [middle of 9 runs]
viability, T/C (compound 0.949 µM): 103% [middle of 9 runs]
viability, T/C (compound 3 µM): 112% [middle of 9 runs]
IC50 [1]: > 3000 nM
IC50 (curve of compound): > 3000 nM

SMILES: COc1c(OCCCN2CCOCC2)ccc2c3n(c(=NC(=O)c4cnc(N)nc4)nc12)CCN3
viability, T/C (compound 0.00316 µM): 101% and 93.1% and 100%
viability, T/C (compound 0.01 µM): 89.9% and 93.9% and 92.4%
viability, T/C (compound 0.0316 µM): 92% and 108% and 94.5%
viability, T/C (compound 0.1 µM): 78.6% and 67.6% and 82.1%
viability, T/C (compound 0.316 µM): 52.2% and 63.2% and 49.7%
viability, T/C (compound 1 µM): 39.4% and 36.3% and 28.6%
IC50 (curve of compound): 511 nM and 302 nM and 385 nM

SMILES: Cc1nc(N2CCC3(CC2)COC(C)C3N)c(CO)nc1Sc1ccnc(N)c1Cl (configuration not stated)
viability, T/C (compound 0.00949 µM): 101% and 93.1% and 109%
viability, T/C (compound 0.03 µM): 83.2% and 88.3% and 85.1%
viability, T/C (compound 0.0949 µM): 102% and 90.2% and 91%
viability, T/C (compound 0.3 µM): 82.2% and 84.3% and 94.8%
viability, T/C (compound 0.949 µM): 91.4% and 83.7% and 86.9%
viability, T/C (compound 3 µM): 87.5% and 86% and 99.3%
IC50 (curve of compound): > 3000 nM

SMILES: Cn1ncnc1[C@H]1c2n[nH]c(=O)c3cc(F)cc(c23)N[C@@H]1c1ccc(F)cc1
viability, T/C (compound 0.000316 µM): 97.2% and 109% and 94.1%
viability, T/C (compound 0.001 µM): 104% and 101% and 106%
viability, T/C (compound 0.00316 µM): 99.2% and 110% and 107%
viability, T/C (compound 0.01 µM): 98.5% and 105% and 109%
viability, T/C (compound 0.0316 µM): 109% and 105% and 108%
viability, T/C (compound 0.1 µM): 109% and 105% and 115%
IC50 (curve of compound): > 100 nM

SMILES: NC(=O)C(=Cn1cnc(-c2cc(C(F)(F)F)cc(C(F)(F)F)c2)n1)c1cncnc1
viability, T/C (compound 0.000949 µM): 99.7% and 95.2% and 104%
viability, T/C (compound 0.003 µM): 88.1% and 92.4% and 96.4%
viability, T/C (compound 0.00949 µM): 92% and 89% and 111%
viability, T/C (compound 0.03 µM): 89.8% and 103% and 102%
viability, T/C (compound 0.0949 µM): 113% and 114% and 130%
viability, T/C (compound 0.3 µM): 92.5% and 100% and 118%
IC50 (curve of compound): > 300 nM

SMILES: NC1CCC(NC2CC2c2ccccc2)CC1 (configuration not stated)
viability, T/C (compound 0.000316 µM): 98.4% and 88.6% and 107%
viability, T/C (compound 0.001 µM): 100% and 93.4% and 91.5%
viability, T/C (compound 0.00316 µM): 100% and 110% and 93.7%
viability, T/C (compound 0.01 µM): 98.2% and 85.6% and 90.5%
viability, T/C (compound 0.0316 µM): 93.5% and 101% and 93.9%
viability, T/C (compound 0.1 µM): 107% and 91.3% and 97.6%
IC50 (curve of compound): > 100 nM

SMILES: O=C(c1ccc(F)c(F)c1Nc1ccc(I)cc1F)N1CC(O)([C@@H]2CCCCN2)C1
viability, T/C (compound 0.00316 µM): 94.2% and 92.8% and 95.9%
viability, T/C (compound 0.01 µM): 90.2% and 82.4% and 91.8%
viability, T/C (compound 0.0316 µM): 87.9% and 89.5% and 101%
viability, T/C (compound 0.1 µM): 85.8% and 91.7% and 97.6%
viability, T/C (compound 0.316 µM): 87.8% and 89.1% and 96.5%
viability, T/C (compound 1 µM): 92.6% and 92.3% and 102%
IC50 (curve of compound): > 1000 nM
